What all share (experiment): NCI tumour cell line growth inhibition, 48 h
The subject of test [1] is UACC-62 melanoma.
Test [2] relates to CAKI-1 renal.
Test [3] relates to UACC-257 melanoma.
In test [4] the test system is A549 NSCLC.
The subject of test [5] is UO-31 renal.
Test [6] deals with NCI-H460 lung.
Test [7] concerns SF-268 CNS.
For test [8], the system named is SN12C renal.
Test [9] relates to SK-MEL-28 melanoma.
Test [10] concerns SK-OV-3 ovarian.

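Results reflect a 48-hour exposure of cells in 96-well plates to compound at five concentrations. GI50: concentration for 50% inhibition of growth. TGI denotes the concentration required for complete inhibition of growth.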

On to `CN(C)CCN1C(=O)N(CCN(C)C)c2c3cc(O)ccc3nc3c([N+](=O)[O-])ccc1c23`, for which the TGI in [1] amounted to 30.8 µM; in test [2], 47.9 µM; in test [3], 29.2 µM; in [4] it was 35.5 µM; in test [5] it was 33.9 µM; in test [6], 26.4 µM. Further, the TGI in [7] was 26.7 µM; in test [8], 23.6 µM; in test [9] it was 58.5 µM.
`Fc1ccc(OCc2ccc3nc(-c4ccccc4)c(Cl)nc3c2)cc1`: the TGI in [1] was over 100 µM; in test [2], 60.6 µM; in test [3], over 100 µM; in test [4], over 100 µM; in [5] it was over 100 µM; in test [6] it was over 100 µM. Further, the TGI in [7], in test [8] and in [9] was over 100 µM throughout.
For the compound `CCOP(=O)(COCCn1nc(Br)c(=O)[nH]c1=O)OCC`, the TGI in test [2], in test [3], in test [4], in test [5], in test [6] and in [7] was over 100 µM throughout. In addition, the TGI in test [8] and in [9] was over 100 µM throughout.
On to `COC(=O)c1ccc2cc(O)ccc2c1`, for which the TGI in test [1], in test [2], in test [3], in test [4], in [5] and in [7] was over 100 µM throughout. Also, the TGI in test [8], in test [9] and in [10] was over 100 µM each time.
For the compound `CC(C)NC(=O)OCc1c(COC(=O)NC(C)C)n(C)c2c1ccc1cc(Cl)c(Cl)cc12`, the TGI is 28 µM in [1]; 12.6 µM in [2]; 30.6 µM in [3]; 95.7 µM in test [4]; 32.8 µM in test [5]; 16.3 µM in test [6]. For the same compound, the figures for the TGI in [7] and in test [10] were 29.4 µM and 63.3 µM, respectively.
`CCc1ccc(OCc2ccccc2C(=O)Nc2ccc3nc(C)cc(N)c3c2)cc1`: the GI50 was 1.6 µM in test [1]; 1.83 µM in test [3]; 1.56 µM in test [4]; 1.44 µM in test [5]; 1.51 µM in [8]; 1.75 µM in test [9]. Moreover, the GI50 in [10] was 1.64 µM. Moreover, the TGI was found to be 3.02 µM in test [1]; 3.37 µM in [3]; 3.27 µM in test [4]; 2.84 µM in test [5]; 3.02 µM in test [8]; 3.29 µM in test [9]. The compound also yielded a TGI in test [10] of 3 µM.
With `Cn1c(=O)c2[nH]c(Nc3cccc(Cl)c3)nc2n(C)c1=O`, the TGI in [1], in test [2], in test [3], in test [4], in [7] and in test [8] was over 10 µM each time. Further, the TGI in test [9] and in test [10] was over 10 µM throughout.
`CN(C)C(=O)/N=C1\SC(=Nc2ccccc2)C(=Nc2ccccc2)N1c1ccc([N+](=O)[O-])cc1`: the TGI in [1], in test [2], in [5], in test [6], in [8] and in test [9] was over 100 µM in each case. For the same compound, in test [10], the TGI was over 100 µM.
Take `CCOC(=O)c1c(-c2ccc(OC)cc2)c(C#N)c(=S)n(C2OC(CO)C(O)C(O)C2O)c1C` (stereo unspecified): the TGI in test [2], in [3], in [4], in [5], in test [7] and in test [8] was over 100 µM throughout. Besides, the TGI in test [9] and in test [10] was over 100 µM throughout.
In the case of `CSc1ncnc2c1cnn2Cc1cn(COCC(O)CO)nn1` (stereo unspecified), the TGI was over 100 µM in test [1]; over 100 µM in test [2]; over 100 µM in test [3]; over 100 µM in [4]; over 100 µM in test [5]; 52.7 µM in test [7]. The TGI in test [8], in test [9] and in test [10] was over 100 µM each time.
On to `COc1ccc(CCn2ccc(=O)c(O)c2C)cc1OC`, for which the TGI in [2] was 12 µM; in test [3], 31 µM; in [4], over 100 µM; in [6], 31.2 µM; in test [7], 9.92 µM; in test [10], over 100 µM.
Take `CN1C2CCC1C(CO)C(=O)C2` (stereo unspecified): the TGI in test [1], in [2], in test [3], in test [6], in test [7] and in test [9] was over 100 µM in each case. This compound showed a TGI in [10] of over 100 µM.
In the case of `Cc1ccc(S(=O)(=O)N2CCc3cc(O)c([N+](=O)[O-])cc32)cc1`, the TGI in test [1], in test [2], in [3], in test [4], in test [5] and in [7] was over 100 µM each time. The TGI in [8], in test [9] and in [10] was over 100 µM in each case.
As for `O/N=C/[C@H]1COC2(CCCCC2)O1`, the TGI in test [1], in test [3], in test [4], in test [5], in test [7] and in test [8] was over 100 µM each time. Besides, the TGI in [9] and in test [10] was over 100 µM each time.
Take `O=C1CN(c2ccccc2)C(=O)C1C(=O)Nc1ccc(Cl)c(Cl)c1` (stereo unspecified): the TGI was 12.4 µM in test [1]; 22.7 µM in [3]; 15.7 µM in [4]; 11.7 µM in test [5]; 21.2 µM in [7]; 17.1 µM in test [8]. The figures for the TGI in test [9] and in test [10] were 21.4 µM and 15.8 µM, respectively.
On to `Oc1ccc(C[C@@H]2CN[C@H](Cc3ccc(O)c(Br)c3)CN2)cc1`, for which the TGI in test [1], in [2], in test [3], in test [4], in test [5] and in test [7] was over 100 µM each time. Also, the TGI in [8], in test [9] and in test [10] was over 100 µM throughout.

The values above are taken from PubChem BioAssay (NCI).
